Data reported in a melting point compilation (Tetko et al.; mined from patent text by program, amines drawn as free bases though some values may be those of a salt).

| SMILES | melting point [°C] |
| --- | --- |
| NNC1=NS(=O)(=O)c2cnccc2N1 | 290 to 292 |
| COC(=O)C(Sc1ccc(Cl)cc1)c1ccc(Oc2ccc(Cl)cc2)cc1 (stereo not drawn) | 71 to 75 |
| CCCCCCC(C)Oc1ccc(C(=O)O)cc1C#N (stereo not drawn) | 98.1 to 99.9 |
| Cn1cnnc1C(N)(c1ccc(C#N)cc1)c1ccc2c(c1)c(-c1cccc(Cl)c1)nc1nnnn12 (stereo not drawn) | 194 |
| CC(C)(C)OC(=O)Nc1ccc(N2CCNCC2)cc1 | 155 to 157 |
| O=[N+]([O-])c1cc(CS)cc(O)c1O | 179 to 185 |
| CC(CO)(CO)Nc1ccc([N+](=O)[O-])cc1 | 120 |
| O=[N+]([O-])c1ccc(N2CCSCC2)cc1 | 142 to 144 |
| COC(=O)c1ccc(C(F)(F)F)cc1Sc1ccccc1 | 55 to 60 |
| COC(=O)c1cc(CC(C)NCC(O)c2ccc(O)c(CO)c2)ccc1O (stereo not drawn) | 65 to 69 |
| O=C(NCC#Cc1ccc(C#CCNC(=O)OCc2ccccc2)nc1)OCc1ccccc1 | 156 to 158 |
| O=Cc1cn(-c2cccnc2)nc1-c1ccc([N+](=O)[O-])o1 | 237 to 238 |
| CNC(=O)C1OC(n2cnc3c(NCc4cc(Cl)ccc4OCc4cc(C)no4)ncnc32)C(O)C1NC(=O)OC(C)(C)C (stereo not drawn) | 135 to 137 |
| O=P(O)(O)CCCCCCCCCCCC(F)(F)C(F)(F)C(F)(F)C(F)(F)F | 93 to 96 |
| COc1cc(C)cc(OC)c1N(CC1CCCCC1)C(=O)CNC(=O)c1cc2ccccc2n1CCC(=O)O | 110 |
| CCCOc1ccccc1-c1nc2sccc2c(=O)[nH]1 | 115 to 117 |
| COC1=C(OC)C(=O)C(CCCCCCCCCC(=O)O)=C(C)C1=O | 59 to 60 |
| N#Cc1ccc(OCCCCCOc2cccc(-c3cc4ccc(C#N)cc4o3)c2)cc1 | 138 to 140 |
| CON(C)C(=O)Nc1nnc(SCc2cccnc2)s1 | 142 to 144 |
| Cc1cccc2c1NCC(=O)N2 | 168 to 171 |
| Nc1nc(N)c2ncn(COC(CO)CO)c2n1 | 176 to 177 |
| COc1cc2c(Nc3ccc(Sc4ccccn4)cc3)c(C#N)cnc2cc1F | 231 to 233 |
| COc1ccc(C2(C)Cc3cc(OCc4ccccc4)c(Cl)c(Cl)c3C2=O)cc1 (stereo not drawn) | 115 to 119 |
| CCN(C)c1cc(C)nc(Oc2c(C)cc(C)cc2C)c1C | 173 to 174 |
| O=c1oc(C(F)(F)F)ccc1-c1ccc(F)cc1F | 98 to 100 |

| SMILES | melting point [°C] |
| --- | --- |
| CC(=O)Nc1nc(-c2cccc3ccccc23)co1 | 188 to 190 |
| CC(CCC(=O)OC1CCCCC1)C1CC=C2C3=C(CCC21C)C1(C)CCC(O)C(C)(C)C1CC3 (stereo not drawn) | 130 to 132 |
| CC(C)(O)C(C(=O)O)c1ccc(F)cc1 (stereo not drawn) | 86 to 88 |
| COC(=O)COc1ccc(OC)cc1C=O | 74 to 75 |
| COc1ccc(CN(CCN(C)CCCCCCNC(=O)NCCCOc2cccc(CN3CCCCC3)c2)c2ccccn2)cc1 | 75 |
| CCC1C(=O)N2CCCC(C(=O)OC(C)(C)C)N2C1=O (stereo not drawn) | 93 to 95 |
| CCCCCCc1cc2c(s1)NC(=O)CN=C2c1ccccc1Cl | 141 to 143 |
| C=CCOc1cc(C(=O)OC)cc(OCC=C)c1NC(C)=O | 135 to 137 |
| CCCCc1oc2ccccc2c1-c1ncc(-c2ccc3cc(OC(Cc4ccccc4)C(=O)OC)ccc3c2)o1 (stereo not drawn) | 122 to 124 |
| COc1cccc(CNC(=O)c2nc3c(cc(C)n3S(C)(=O)=O)c(=O)[nH]2)c1 | 211 to 213 |
| CCOC1CC2(C)C(CCC3C4CCC(CC)C4(C)CC(N(C)C)C32)CC1O (stereo not drawn) | 57 to 59 |
| Cc1c(O)c(C(C)(C)C)cc2c1CCC1C2CCC2(C)C(=O)CCC12 (stereo not drawn) | 190 to 192 |
| O=C(c1ccc(Cc2c(Cl)cc([N+](=O)[O-])cc2Cl)cc1)c1cnc(Cl)c(Cl)c1 | 129 to 131 |
| CCCCC(=O)Nc1ncc(Br)c(C)c1[N+](=O)[O-] | 134 to 135 |
| Cc1c(-c2ccccc2)n(-c2cc([N+](=O)[O-])ccc2Cl)c(-c2ccccc2)cc1=O | 277 to 279 |
| CCn1cc(C(=O)O)c(=O)c2cc(F)c(N3CCNC(c4ccoc4)C3)cc21 (stereo not drawn) | 202 to 204 |
| Cn1c(-c2ccc(C(N)=O)cc2)cc2c(N3CCCC3)nc(N3CCCC3)nc21 | 175 to 180 |
| Cc1ccc(-c2ccccc2-c2nnnn2-c2ccc([N+](=O)[O-])cc2)cc1 | 164 to 166 |
| Cc1cc(C(=O)Nc2ccn3cc(-c4ccccc4)nc3n2)ccn1 | 255 to 257 |
| CC1CC2C3CCC4=CC(=O)C=CC4(C)C34OC4CC2(C)C1(O)C(=O)CO (stereo not drawn) | 238 to 240 |
| OCC1OC(c2c(Cl)nc3cc(Cl)c(Cl)cn23)C(O)C1O (stereo not drawn) | 239 to 240 |
| CCN1c2ncc(CCc3ccccc3)cc2C(=O)Nc2c(C)ccnc21 | 174 to 175 |
| CC(C)(c1ccc(-c2nc(Nc3ccc(F)cc3)ncc2C#N)cc1)N1CCCC1 | 124 |
| O=S1(=O)c2cccc3cccc(c23)N1CCCN1CCC(CC2C=Cc3ccccc32)CC1 (stereo not drawn) | 140 |
| NC(=O)N1CCC(Oc2ccc([N+](=O)[O-])cc2)(c2ccccc2)CC1 | 203 to 206 |

| SMILES | melting point [°C] |
| --- | --- |
| Cc1[nH]c2cc(OCc3ccccc3)ccc2c1C(=O)C1CSC(c2cccnc2)N1 (stereo not drawn) | 89 to 93 |
| C#CCn1nc(-c2cc(C(C)(C)C)c(O)c(C(C)(C)C)c2)c2cccnc21 | 172 to 174 |
| CC(C)(N)CNc1ccc(C2=NNC(=O)CC2)cc1 | 190 to 192 |
| COc1ccc2c(c1)C(=O)c1nc(-c3ccccc3)sc1C2=O | 221 |
| Cc1[nH]cc2c(=O)n(-c3ccc(Cl)cc3)nc-2c1-c1cccc(NS(C)(=O)=O)c1 | 332 to 341 |
| Fc1ccc(NC(=S)Nc2nc3ccc(OC(F)(F)F)cc3s2)cc1 | 207 |
| CCCCCCCCCCCCCCCCC[C@H](C[C@H](O)[C@H](CC)C(=O)O)OCc1ccccc1 | 62 to 63.5 |
| Cc1nnc(C=Cc2ccccc2OCC2CO2)s1 (stereo not drawn) | 134 to 135 |
| COc1ccc(C(=O)Nc2ccccc2)cc1NS(=O)(=O)c1ccccc1Cl | 107 to 109 |
| CCCCCCCCN(CCCCCCCC)C(=O)c1cc(C(C)(C)C)c(OC(=O)c2cc(C(C)(C)C)c(O)c(C(C)(C)C)c2)c(C(C)(C)C)c1 | 145 to 146 |
| O=C1NC(=S)NC1Cc1c[nH]c2ccccc12 (stereo not drawn) | 206 to 210 |
| O=P(Oc1ccc(S(=O)(=O)c2ccc(OP(=O)(c3ccccc3)c3ccccc3)cc2)cc1)(c1ccccc1)c1ccccc1 | 210 to 211 |
| CSc1nnc(-c2ccc(F)cc2)c(-c2ccc(F)cc2)n1 | 132 to 135 |
| CC(C)C1(C)CCNC1=O (stereo not drawn) | 88 to 90 |
| CC1(C)CC(=O)Nc2c(CCN3CCN(C4=NS(=O)c5ccccc54)CC3)cc(F)cc21 (stereo not drawn) | 235 |
| Cc1cc(N(C)Cc2oc(-c3ccc(C(F)(F)F)cc3)nc2C)cc(C)c1OCC(=O)O | 122 to 123 |
| O=C(CCc1ccccc1)c1cccnc1Oc1ccc(F)cc1 | 82 to 83 |
| Cc1ccc2nc(SCCN(C)C)[nH]c2c1 | 103 |
| N#CC(=NOCF)C(=N)NCl | 97 to 98 |
| Cc1snc(O)c1C(N)=O | 248 to 250 |
| Oc1cc2c(cc1Sc1ccccc1)OCC2 | 80 to 81 |
| Cc1cccc(C)c1CNc1cc(C(=O)N(C)C)nc2c(CO)c(C)[nH]c12 | 301 |
| COc1ccc(C(Cl)=NO)cc1 | 87.5 to 89.5 |
| CC(=O)C(=CNc1ccc(C2=NNC(=O)CC2)cc1)C(C)=O | 218 to 222 |
| CC1(C)C(=O)N(c2ccc([N+](=O)[O-])c(C(F)(F)F)c2)C(=O)N1CCCCCCN1C(=O)N(c2ccc([N+](=O)[O-])c(C(F)(F)F)c2)C(=O)C1(C)C | 187 to 188 |

| SMILES | melting point [°C] |
| --- | --- |
| BrCCc1c[nH]c2ccccc12 | 57 to 60 |
| O=C(O)CCc1conc1-c1ccc(F)c(Br)c1 | 151 to 152 |
| Cc1c(C(=O)Nc2ccc(N3CCN(C4CCOCC4)CC3)c(C#N)c2)cnn1-c1ccc(C(F)(F)F)cc1 | 274 |
| COc1ccc(Cn2ccn(CC(=O)c3ccc(OC)c(OC4CCCC4)c3)c2=O)cc1 | 106 |
| O=S(=O)(C(/C=C/c1ccc(Cl)cc1)c1c(F)c(F)c(F)c(F)c1F)C(/C=C/c1ccc(Cl)cc1)c1c(F)c(F)c(F)c(F)c1F (stereo not drawn) | 154 to 155 |
| CS(=O)(=O)NCCNCc1ccccc1 | 71 to 73 |
| CC(=O)c1cn(Cc2ccccc2)c(=O)n(Cc2ccccc2)c1=O | 92 to 93 |
| CCOC(=O)Cc1ccc(NC(=O)Nc2ccccc2Br)c(OC)n1 | 160 to 163 |
| CSc1cnn(C(C)(C)C)c(=O)c1C | 115 to 116 |
| CC(C)(CO)CNc1cc(C(c2cc(F)ccc2F)S(=O)(=O)c2ccc(Cl)cc2)c(Cl)cn1 (stereo not drawn) | 176 to 178 |
| Cc1cc2ccccc2c(C2CC(=O)C=C(O)C2)c1C (stereo not drawn) | 242 |
| Nc1cc(-n2cc(C(=O)O)c(=O)c3cc(F)c(N4CC(N)C4)nc32)c(F)cc1F | 168 to 170 |
| O=C1CCC(c2ccncc2)=NN1 | 185 to 187 |
| COc1ccc2nc3c(cc2c1)c(N)nn3CC(=O)N(C)C | 251 to 253 |
| O=C(NC(Cc1ccc(NCc2ccccc2)cc1)C(=O)O)c1cn2cc(-c3ccc(Cl)cc3)ccc2n1 (stereo not drawn) | 260 |
| CNC(=C[N+](=O)[O-])NCCOc1cccc(CCCN(C)C)c1 | 82 to 83.5 |
| COc1ccc(C(=O)Nc2cc(-c3c(-c4cccc(C)c4)nc4ccc(N(C)C)nn34)ccn2)cc1 | 193 to 194 |
| CCCc1ccc(S(=O)(=O)Nc2ccc3snc(NC(C)=O)c3c2)cc1 | 254 to 255 |
| CC(OC(=O)NC1(C(=O)O)CC1)OC(=O)C(C)C (stereo not drawn) | 127 to 130 |
| CCOC(=O)c1cn(NC)c2c(F)c(F)c(F)cc2c1=O | 189 |
| Cc1ccc2c(c1)N=C(NCc1cccnc1)c1ccccc1N2 | 186 to 187 |
| O=C(O)Cc1c(C(=O)c2ccccc2)[nH]c2cc(Cl)cc(Cl)c12 | 214 to 218 |
| COc1ccccc1Sc1ccc2c(c1)CCC1N(C)C(=O)CCC21C (single isomer, unassigned; (+)) | 166 to 168 |
